In ChEMBL document CHEMBL5233239, “Matrix metalloproteinase-9 (MMP-9) and its inhibitors in cancer: A minireview” (Eur J Med Chem, 2020):

Experiments:
[1] = biological target: T1, Stromelysin-1 (Homo sapiens, UniProt P08254); assay: Inhibition of MMP-3 (unknown origin) at 20 uM by fluorometric assay
Target sequence in this assay (P08254 100-477 limits assumed): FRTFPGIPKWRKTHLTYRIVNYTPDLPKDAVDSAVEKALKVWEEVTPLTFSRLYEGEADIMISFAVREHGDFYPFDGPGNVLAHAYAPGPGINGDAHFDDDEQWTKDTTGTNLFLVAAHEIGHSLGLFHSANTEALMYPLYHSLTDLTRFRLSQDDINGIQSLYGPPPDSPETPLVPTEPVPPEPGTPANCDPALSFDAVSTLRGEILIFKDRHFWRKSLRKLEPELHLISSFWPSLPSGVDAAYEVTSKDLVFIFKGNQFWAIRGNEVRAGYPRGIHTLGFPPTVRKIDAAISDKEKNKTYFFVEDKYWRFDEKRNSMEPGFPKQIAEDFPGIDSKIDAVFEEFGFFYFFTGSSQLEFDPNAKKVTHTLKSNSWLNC

[2] = biological target: T2, 72 kDa type IV collagenase (Homo sapiens, UniProt P08253); assay: Inhibition of MMP-2 (unknown origin) at 20 uM by fluorometric assay
Target sequence in this assay (P08253 110-660 limits assumed): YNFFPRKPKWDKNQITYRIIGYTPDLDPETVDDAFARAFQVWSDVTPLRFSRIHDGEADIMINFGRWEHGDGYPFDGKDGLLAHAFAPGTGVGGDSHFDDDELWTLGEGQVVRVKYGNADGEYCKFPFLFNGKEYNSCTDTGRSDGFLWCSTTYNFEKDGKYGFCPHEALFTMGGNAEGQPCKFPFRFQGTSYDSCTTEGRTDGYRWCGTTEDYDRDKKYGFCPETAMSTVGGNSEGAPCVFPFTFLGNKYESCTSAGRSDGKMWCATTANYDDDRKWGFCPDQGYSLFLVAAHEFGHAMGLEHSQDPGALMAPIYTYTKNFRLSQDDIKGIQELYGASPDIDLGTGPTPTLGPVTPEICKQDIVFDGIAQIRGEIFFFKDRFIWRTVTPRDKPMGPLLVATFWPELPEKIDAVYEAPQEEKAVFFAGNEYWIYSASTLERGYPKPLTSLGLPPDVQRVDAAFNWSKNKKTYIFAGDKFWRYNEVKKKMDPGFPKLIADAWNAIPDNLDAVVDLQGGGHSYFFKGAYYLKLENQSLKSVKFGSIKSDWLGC

[3] = biological target: T3, Matrix metalloproteinase-9 (Homo sapiens, UniProt P14780); assay: Inhibition of MMP-9 (unknown origin) at 20 uM by fluorometric assay
T3 sequence (P14780 whole entry): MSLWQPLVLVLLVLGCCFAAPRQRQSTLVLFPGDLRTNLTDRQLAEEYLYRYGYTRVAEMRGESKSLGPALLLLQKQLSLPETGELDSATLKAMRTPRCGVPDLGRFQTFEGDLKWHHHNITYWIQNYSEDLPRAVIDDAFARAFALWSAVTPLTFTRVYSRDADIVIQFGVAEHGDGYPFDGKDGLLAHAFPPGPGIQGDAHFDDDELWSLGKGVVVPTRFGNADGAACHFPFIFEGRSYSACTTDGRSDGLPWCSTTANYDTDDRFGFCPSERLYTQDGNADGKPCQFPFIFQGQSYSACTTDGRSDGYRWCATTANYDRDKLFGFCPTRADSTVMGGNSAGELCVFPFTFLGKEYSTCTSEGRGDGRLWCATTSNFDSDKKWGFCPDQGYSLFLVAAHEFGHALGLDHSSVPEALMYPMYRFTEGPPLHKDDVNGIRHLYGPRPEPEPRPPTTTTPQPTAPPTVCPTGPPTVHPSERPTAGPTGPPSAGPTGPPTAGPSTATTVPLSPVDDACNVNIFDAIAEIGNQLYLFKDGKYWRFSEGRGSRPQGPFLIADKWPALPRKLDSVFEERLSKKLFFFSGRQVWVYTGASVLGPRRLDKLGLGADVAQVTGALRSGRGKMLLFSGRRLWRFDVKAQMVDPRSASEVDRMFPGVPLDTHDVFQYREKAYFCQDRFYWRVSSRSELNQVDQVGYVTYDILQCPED

[4] = biological target: Matrix metalloproteinase-14 (Homo sapiens) (UniProt P50281); assay: Inhibition of MMP-14 (unknown origin) at 20 uM by fluorometric assay
[5] = biological target: Neutrophil collagenase (Homo sapiens, UniProt P22894); assay: Inhibition of MMP-8 (unknown origin) at 20 uM by fluorometric assay
Sequence of Neutrophil collagenase (P22894 101-467 limits assumed): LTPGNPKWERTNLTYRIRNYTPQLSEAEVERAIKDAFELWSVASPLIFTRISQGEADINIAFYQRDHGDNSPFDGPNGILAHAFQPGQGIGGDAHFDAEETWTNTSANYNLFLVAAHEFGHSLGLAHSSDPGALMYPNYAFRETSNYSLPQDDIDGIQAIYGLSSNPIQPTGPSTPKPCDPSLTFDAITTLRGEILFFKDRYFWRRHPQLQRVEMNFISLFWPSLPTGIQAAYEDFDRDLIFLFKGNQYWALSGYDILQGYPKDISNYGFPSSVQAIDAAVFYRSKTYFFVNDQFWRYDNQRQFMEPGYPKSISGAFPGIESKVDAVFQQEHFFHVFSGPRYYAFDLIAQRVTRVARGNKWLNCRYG

[6] = biological target: T4, Matrilysin (Homo sapiens) (UniProt P09237); assay: Inhibition of MMP-7 (unknown origin) at 20 uM by fluorometric assay
T4 sequence (whole entry): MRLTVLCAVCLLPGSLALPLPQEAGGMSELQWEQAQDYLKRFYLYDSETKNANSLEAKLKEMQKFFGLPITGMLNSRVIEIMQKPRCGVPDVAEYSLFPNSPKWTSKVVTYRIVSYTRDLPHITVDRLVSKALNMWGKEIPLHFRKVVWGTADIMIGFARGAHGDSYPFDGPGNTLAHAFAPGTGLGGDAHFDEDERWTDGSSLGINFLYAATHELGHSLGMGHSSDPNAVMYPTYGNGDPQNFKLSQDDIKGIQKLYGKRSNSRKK

[7] = biological target: Macrophage metalloelastase (Homo sapiens) (UniProt P39900); assay: Inhibition of MMP-12 (unknown origin) at 20 uM by fluorometric assay
Sequence of Macrophage metalloelastase (Homo sapiens) (P39900 106-470 limits assumed): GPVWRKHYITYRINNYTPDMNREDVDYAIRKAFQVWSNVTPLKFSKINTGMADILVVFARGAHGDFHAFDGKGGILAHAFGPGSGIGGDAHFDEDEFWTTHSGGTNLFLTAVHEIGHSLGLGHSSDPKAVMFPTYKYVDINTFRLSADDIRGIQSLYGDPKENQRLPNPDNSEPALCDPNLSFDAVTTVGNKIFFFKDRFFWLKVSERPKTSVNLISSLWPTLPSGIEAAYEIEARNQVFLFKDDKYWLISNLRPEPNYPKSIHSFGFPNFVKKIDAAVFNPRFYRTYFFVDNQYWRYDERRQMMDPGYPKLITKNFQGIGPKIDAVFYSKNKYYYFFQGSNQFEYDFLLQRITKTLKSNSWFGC

[8] = biological target: T3, Matrix metalloproteinase-9; assay: Inhibition of MMP-9 (unknown origin)
[9] = biological target: T5, Collagenase 3 (Homo sapiens, UniProt P45452)
Description: Inhibition of MMP-13 (unknown origin)

[10] = biological target: T6, Interstitial collagenase (Homo sapiens, UniProt P03956); assay: Inhibition of MMP-1 (unknown origin)
T6 sequence (P03956 whole entry): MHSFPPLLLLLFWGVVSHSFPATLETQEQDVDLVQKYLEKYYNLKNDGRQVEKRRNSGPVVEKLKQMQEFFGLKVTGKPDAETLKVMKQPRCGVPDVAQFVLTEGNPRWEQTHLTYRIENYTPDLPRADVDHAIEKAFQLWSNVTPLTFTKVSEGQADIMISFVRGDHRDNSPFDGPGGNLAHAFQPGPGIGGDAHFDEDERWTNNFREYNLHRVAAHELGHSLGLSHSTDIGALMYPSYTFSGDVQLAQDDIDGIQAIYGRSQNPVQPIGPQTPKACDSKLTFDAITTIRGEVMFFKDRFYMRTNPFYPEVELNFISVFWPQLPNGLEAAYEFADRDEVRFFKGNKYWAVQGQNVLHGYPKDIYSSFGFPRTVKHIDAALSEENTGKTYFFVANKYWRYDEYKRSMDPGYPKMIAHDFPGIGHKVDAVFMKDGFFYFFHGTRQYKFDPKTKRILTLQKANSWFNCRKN

[11] = biological target: Disintegrin and metalloproteinase domain-containing protein 17 (Homo sapiens, UniProt P78536); assay: Inhibition of TACE (unknown origin)
Sequence of Disintegrin and metalloproteinase domain-containing protein 17 (P78536 whole entry, the tested form may be a part): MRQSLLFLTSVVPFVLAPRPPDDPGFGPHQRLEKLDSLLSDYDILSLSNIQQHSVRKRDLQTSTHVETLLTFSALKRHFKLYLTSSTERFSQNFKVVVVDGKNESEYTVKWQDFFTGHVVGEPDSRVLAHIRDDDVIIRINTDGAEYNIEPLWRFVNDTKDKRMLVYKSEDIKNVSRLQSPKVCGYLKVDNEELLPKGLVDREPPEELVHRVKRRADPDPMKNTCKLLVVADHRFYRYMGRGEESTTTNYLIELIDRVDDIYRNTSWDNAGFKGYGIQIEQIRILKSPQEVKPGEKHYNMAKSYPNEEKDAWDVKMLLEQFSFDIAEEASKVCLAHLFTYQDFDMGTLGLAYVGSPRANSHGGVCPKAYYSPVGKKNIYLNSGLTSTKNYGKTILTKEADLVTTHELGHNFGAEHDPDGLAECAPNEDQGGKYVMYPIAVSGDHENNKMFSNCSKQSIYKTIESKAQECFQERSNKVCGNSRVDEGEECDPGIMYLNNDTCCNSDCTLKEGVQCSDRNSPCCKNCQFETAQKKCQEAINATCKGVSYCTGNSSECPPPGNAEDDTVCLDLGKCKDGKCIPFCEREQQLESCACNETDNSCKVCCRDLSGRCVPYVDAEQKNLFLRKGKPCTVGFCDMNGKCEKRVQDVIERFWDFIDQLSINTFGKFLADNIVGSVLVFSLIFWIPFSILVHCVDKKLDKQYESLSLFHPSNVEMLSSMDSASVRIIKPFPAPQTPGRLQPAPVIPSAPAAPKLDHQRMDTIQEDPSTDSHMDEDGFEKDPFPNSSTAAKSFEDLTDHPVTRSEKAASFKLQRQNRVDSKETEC

[12] = biological target: T3, Matrix metalloproteinase-9; assay: Inhibition of MMP-9 (unknown origin) by fluorimetric assay
[13] = biological target: T2, 72 kDa type IV collagenase; assay: Inhibition of MMP-2 (unknown origin) by fluorimetric assay
Target sequence in this assay (P08253 whole entry): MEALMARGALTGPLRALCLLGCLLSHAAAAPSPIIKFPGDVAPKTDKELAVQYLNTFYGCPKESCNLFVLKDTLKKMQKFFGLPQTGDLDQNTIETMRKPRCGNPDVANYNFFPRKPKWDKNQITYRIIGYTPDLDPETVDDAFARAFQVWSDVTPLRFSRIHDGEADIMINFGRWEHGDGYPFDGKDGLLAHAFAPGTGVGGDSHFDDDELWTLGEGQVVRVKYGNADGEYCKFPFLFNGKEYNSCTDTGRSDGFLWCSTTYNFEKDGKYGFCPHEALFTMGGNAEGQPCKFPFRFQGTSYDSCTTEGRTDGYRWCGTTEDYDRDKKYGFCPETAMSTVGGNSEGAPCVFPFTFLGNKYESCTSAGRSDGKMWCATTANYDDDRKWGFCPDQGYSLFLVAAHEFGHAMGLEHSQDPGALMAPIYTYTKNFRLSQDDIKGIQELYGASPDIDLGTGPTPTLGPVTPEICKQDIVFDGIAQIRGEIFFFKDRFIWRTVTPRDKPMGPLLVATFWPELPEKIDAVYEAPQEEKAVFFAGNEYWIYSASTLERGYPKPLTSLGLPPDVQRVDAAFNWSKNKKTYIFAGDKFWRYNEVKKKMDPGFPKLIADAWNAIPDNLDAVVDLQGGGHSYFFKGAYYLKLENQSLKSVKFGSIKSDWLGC

[14] = biological target: T6, Interstitial collagenase; assay: Inhibition of MMP-1 (unknown origin) by fluorimetric assay
[15] = biological target: T3, Matrix metalloproteinase-9; assay: Inhibition of MMP-9 (unknown origin) using Ac-PLG-[2-mercapto-4-methylpentanoyl]-LG-OC2H5) as substrate measured upto 20 mins by microplate reader analysis
[16] = biological target: T2, 72 kDa type IV collagenase; assay: Inhibition of MMP-2 (unknown origin) using Ac-PLG-[2-mercapto-4-methylpentanoyl]-LG-OC2H5) as substrate measured upto 20 mins by microplate reader analysis
Target sequence in this assay (P08253 whole entry): as above

[17] = biological target: T5, Collagenase 3; assay: Inhibition of recombinant human MMP13 using […] as substrate incubated for 20 to 30 mins by fluorescence microplate reader analysis
[18] = biological target: T3, Matrix metalloproteinase-9; assay: Inhibition of recombinant human MMP9 using […] as substrate incubated for 20 to 30 mins by fluorescence microplate reader analysis
[19] = biological target: T1, Stromelysin-1; assay: Inhibition of recombinant human MMP3 expressed in Escherichia coli BL21 (DE3) using [3H]transferrin as substrate incubated for 3 hrs by scintillation counter analysis
Target sequence in this assay (P08254 whole entry): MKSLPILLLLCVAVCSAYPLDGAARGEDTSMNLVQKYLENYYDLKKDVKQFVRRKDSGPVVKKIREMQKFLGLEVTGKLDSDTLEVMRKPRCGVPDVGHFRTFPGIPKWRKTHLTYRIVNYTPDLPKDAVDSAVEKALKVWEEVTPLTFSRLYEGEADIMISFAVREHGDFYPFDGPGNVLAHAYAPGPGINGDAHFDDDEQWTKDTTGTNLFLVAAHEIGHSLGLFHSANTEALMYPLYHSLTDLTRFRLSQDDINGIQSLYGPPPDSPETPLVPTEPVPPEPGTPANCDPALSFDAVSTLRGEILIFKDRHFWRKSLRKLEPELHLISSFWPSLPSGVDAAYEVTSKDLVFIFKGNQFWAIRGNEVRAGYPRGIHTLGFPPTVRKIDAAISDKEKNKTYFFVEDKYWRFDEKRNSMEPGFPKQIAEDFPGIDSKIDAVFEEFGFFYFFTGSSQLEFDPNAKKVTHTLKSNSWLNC

[20] = biological target: T7, Matrilysin (Homo sapiens, UniProt P09237); assay: Inhibition of recombinant human MMP7 using […] as substrate incubated for 20 to 30 mins by fluorescence microplate reader analysis
T7 sequence (P09237 whole entry): T4 sequence (whole entry)

[21] = biological target: T6, Interstitial collagenase; assay: Inhibition of recombinant human MMP1 expressed in Escherichia coli BL21 (DE3) using Mca-Pro-Leu-Gly-Leu-Dpa-Ala-Arg-NH2 as substrate incubated for 20 to 30 mins by fluorescence assay
[22] = biological target: T2, 72 kDa type IV collagenase; assay: Inhibition of human MMP2 using Dnp-Pro-Cha-Gly-Cys(Me)-His-Ala-Lys(Nma)-NH2 substrate by fluorimetric analysis
Target sequence in this assay (P08253 whole entry): as the sequence (P08253 whole entry) above

[23] = biological target: T6, Interstitial collagenase; assay: Inhibition of human MMP1 using Dnp-Pro-Cha-Gly-Cys(Me)-His-Ala-Lys(Nma)-NH2 substrate by fluorimetric analysis
[24] = biological target: T5, Collagenase 3; assay: Inhibition of human MMP13 using Dnp-Pro-Cha-Gly-Cys(Me)-His-Ala-Lys(Nma)-NH2 substrate by fluorimetric analysis
[25] = biological target: T1, Stromelysin-1; assay: Inhibition of human MMP3 using (7-methoxycoumarine-4-yl)-Arg-Pro-Lys-Pro-Tyr-Ala-Nva-Trp-Met-Lys(Dnp)-NH2 substrate by fluorimetric analysis
Target sequence in this assay (P08254 whole entry): as the sequence (P08254 whole entry) above

[26] = biological target: T3, Matrix metalloproteinase-9; assay: Inhibition of human MMP9 using Dnp-Pro-Cha-Gly-Cys(Me)-His-Ala-Lys(Nma)-NH2 substrate by fluorimetric analysis
[27] = biological target: T2, 72 kDa type IV collagenase; assay: Inhibition of MMP-2 (unknown origin) assessed as inhibition constant using Mca-Pro-Leu-Gly-Dpa-Ala-Arg-NH2 substrate preincubated for 1 hr followed by substrate addition and measured after 1 hr by fluorimetric analysis
Target sequence in this assay (P08253 whole entry): as the sequence (P08253 whole entry) above

[28] = biological target: T3, Matrix metalloproteinase-9; assay: Inhibition of MMP-9 (unknown origin) assessed as inhibition constant using Mca-Pro-Leu-Gly-Dpa-Ala-Arg-NH2 substrate preincubated for 1 hr followed by substrate addition and measured after 1 hr by fluorimetric analysis
[29] = biological target: T5, Collagenase 3; assay: Inhibition of human MMP13 using Dnp-Pro-Cha-Gly-Cys(ME)-His-Ala-Lys(Nma)-NH2 as substrate preincubated for 0.5 hrs followed by substrate addition and measured after 6 hrs by fluorimeter analysis
[30] = biological target: T1, Stromelysin-1; assay: Inhibition of human MMP3 using (7-methoxycoumarine-4-yl)-Arg-Pro-Lys-Pro-Tyr-Ala-Nva-Trp-Met-Lys(Dnp)-NH2 as substrate preincubated for 0.5 hrs followed by substrate addition and measured after 6 hrs by fluorimeter analysis
Target sequence in this assay (P08254 whole entry): as the sequence (P08254 whole entry) above

[31] = biological target: T3, Matrix metalloproteinase-9; assay: Inhibition of human MMP9 using Dnp-Pro-Cha-Gly-Cys(ME)-His-Ala-Lys(Nma)-NH2 as substrate preincubated for 0.5 hrs followed by substrate addition and measured after 6 hrs by fluorimeter analysis
[32] = biological target: T2, 72 kDa type IV collagenase; assay: Inhibition of human MMP2 using Dnp-Pro-Cha-Gly-Cys(ME)-His-Ala-Lys(Nma)-NH2 as substrate preincubated for 0.5 hrs followed by substrate addition and measured after 6 hrs by fluorimeter analysis
Target sequence in this assay (P08253 whole entry): as the sequence (P08253 whole entry) above

[33] = biological target: T6, Interstitial collagenase; assay: Inhibition of human MMP1 using Dnp-Pro-Cha-Gly-Cys(ME)-His-Ala-Lys(Nma)-NH2 as substrate preincubated for 0.5 hrs followed by substrate addition and measured after 6 hrs by fluorimeter analysis

FC(F)(F)c1ccc(N2CC2Cn2cc(CCCCCCc3cn(CC4CN4c4ccc(C(F)(F)F)cc4)nn3)nn2)cc1 (stereo not drawn)
inhibition [1]: 27.1% | inhibition [2]: 80.5% | inhibition [3]: 29.6% | inhibition [4]: 22.3% | inhibition [5]: 34.9% | inhibition [6]: 27.5% | inhibition [7]: 26%

CCCCOc1ccc(S(=O)(=O)C2(C(=O)NO)CCN(Cc3ccccc3)CC2)cc1
IC50 [8]: 3 nM | IC50 [9]: 16 nM

COc1ccc(S(=O)(=O)N(Cc2ccccc2)c2c(C(=O)NO)ccc3c(C(C)(C)C)cccc23)cc1
IC50 [8]: 9 nM | IC50 [9]: 16 nM | IC50 [10]: 3100 nM | IC50 [11]: 401 nM

CC1(C)NC(=O)N(C[C@H](CS(=O)(=O)c2ccc(-c3ccc(OC(F)(F)F)cc3)cc2)N(O)C=O)C1=O
IC50 [12]: 0.34 nM | IC50 [13]: 0.86 nM | IC50 [14]: 82 nM

O=C(NO)C1(S(=O)(=O)c2ccc(-n3cc(-c4ccc(-c5cncnc5)cc4)nn3)cc2)CCOCC1
IC50 [15]: 0.8 nM | IC50 [16]: 0.5 nM

COc1ccc(S(=O)(=O)N2CCN(c3cccnc3)CC2C(=O)NO)cc1 (stereo not drawn)
IC50 [17]: 57 nM | IC50 [18]: 32 nM | IC50 [19]: 184 nM | IC50 [20]: 27700 nM | IC50 [21]: 944 nM

COc1ccc(S(=O)(=O)N2CC(C)(C)C(CCSCc3ccccc3)C2C(=O)NO)cc1 (stereo not drawn)
IC50 [22]: 1.64 nM | IC50 [23]: 198 nM | IC50 [24]: 5.5 nM | IC50 [25]: 6.7 nM | IC50 [26]: 0.9 nM

CCCCCCCCCC[C@@H](CC(=O)NO)C(=O)N[C@H](C(=O)NC)c1ccccc1
IC50 [27]: 1.6 nM | IC50 [28]: 0.2 nM

O=C(O)[C@H]1[C@H](CN2C(=O)c3ccccc3C2=O)CC[C@@H]1SCc1ccc(-c2ccc(Cl)cc2)cc1
IC50 [29]: 129 nM | IC50 [30]: 45 nM | IC50 [31]: 13 nM | IC50 [32]: 73 nM | IC50 [33]: 50000 nM

COc1ccc(S(=O)(=O)N(C)c2c(C)cc(Cc3ccc(CN(C)C)cc3)cc2C(=O)NO)cc1
IC50 [8]: 3 nM | IC50 [9]: 11 nM | IC50 [10]: 213 nM | IC50 [11]: 243 nM

COc1ccc(S(=O)(=O)N(C)c2c(CN3CCOCC3)cc(C)cc2C(=O)NO)cc1
IC50 [8]: 5 nM | IC50 [9]: 14 nM | IC50 [10]: 608 nM | IC50 [11]: 174 nM
